Data taken from paper PMC9775433 (Cancers, 2022).
Where “and” joins values, the source holds several entries; their conditions need not be identical. Equal entries are not always repeated.

Columns and labels:
[1] = Tumor drug concentration in tumor needle biopsy at day 17 (LC-MS-MS); type: in vivo, human; details: individual patient; for concentration at 17 day: human, tumor, oral, Tumor - Sunitinib concentration
Description: All tissue samples were immediately snap frozen (within 1 min) in liquid nitrogen and cryopreserved at −80 °C until the day of analysis.
Tissue biopsies were weighed accurately before analysis. Tissue homogenate was prepared by using a mechanical homogenizer. The tumor tissue was homogenized with the precellys lysing kit (bertin instruments®) in the Roche MagNA lyzer®. […] Tissue homogenate samples were directly analyzed.
Supplementary data S2 – Methods (Details)
samples; using a validated liquid chromatography–tandem mass spectrometry (LC-MS-MS).
The system consisted of an Acquity H‐Class UPLC system, coupled to a Xevo TQ‐S micro
tandem mass spectrometer. […]

CD3 = test: Immunohistochemistry of tumor biopsies, CD3 (T-cell infiltration); type: in vivo, human; details: 10 paired tumor biopsies
Description: (§1) Immunohistochemistry: Immunohistochemical staining was performed on 3–5 μm thick sections of the (freeze) tumor biopsies for CD3, CD31 and Ki67 according to standard methods (see Supplementary Data S2). Morphological characteristics were assessed in hematoxylin-eosin (H&E)-stained tissue sections. Evaluation of staining was performed by four investigators using light microscopy of serial tissue sections. […] Semi-quantification of CD31 staining was scored manually by a pathologist. The number of cells positive for CD3, CD31 was expressed as an estimated proportion of the total number of cells. […]
(§2) Finally, staining was
(§3) visualized with 3,3-diamino-benzidine-tetra hydrochloride (DAB), 0.3 mg/ml in 1 ml PBS
(§4) with 0.3 % H2O2. All slides were counterstained with hematoxylin.

CD31 = test: Immunohistochemistry of tumor biopsies, CD31 (microvessel density); type: in vivo, human; details: 10 paired tumor biopsies, day 17
Description: as §1, §2, §3, §4

AAK1 = system: AAK1; set-up: method as in earlier work; details: cited from earlier work
[2] = mice; cited from earlier work
CSNK1D = system: CSNK1D; set-up: method as in earlier work; details: cited from earlier work

## CCN(CC)CCNC(=O)c1c(C)[nH]c(/C=C2\C(=O)Nc3ccc(F)cc32)c1C [sunitinib]
[1]; 300 mg O1W
  Tumor - Sunitinib concentration: […]
[1]; 700 mg O2W
  Tumor - Sunitinib concentration: […]
[1]; 400 mg, 400 mg O2W
  concentration at 17 day: […]
[1]; 800 mg, 800 mg O2W
  concentration at 17 day: 228 ng/mL
CD3; baseline versus day 17, 95% CI 1.15–5.95, p-Value 0.009
  T cell infiltration (CD3 staining), mean increase: […]
CD3; baseline 8.6%
  T cell infiltration (CD3 staining) after 17 days of treatment: […]
CD31
  microvessel density (MVD), pre- versus on treatment biopsies: no significant differences
AAK1
  IC50: […]
[2]
  tumor concentration compared to plasma: […]
CSNK1D
  IC50: […]
